Test results reported in patent publication US9073857B2, “Aripiprazole type I microcrystal, aripiprazole solid preparations, and preparation method” (SHANGHAI ZHONGXI PHARMACEUTICAL CORPORATION, priority 2011, dated 2015).

How the values were obtained:
[1] = Particle size by laser particle size distribution analyzer; type: physicochemical; details: for particle size D10 / particle size D50 / particle size D90 / particle size D[4,3]: Effect Example 2, microcrystals of the Examples
Method: Measure the particle size of aripiprazole in the sample by the following methods, and compare the particle size of aripiprazole in different prescriptions and under different operating conditions.
Test Instrument: BT˜9300S laser particle size distribution analyzer (Dandong Baxter technology Co., Ltd); BT˜800 automatic loop sampling system.
Test conditions: the medium of the loop sampling system is water, with the volume of about 570 ml, and the centrifugal pump speed is 1600 rpm.
Test Method: add appropriate amount of the samples into the loop sampling system, and make the absorbance of the system up to 15%±10, turn on the ultrasonic dispersion for 3 min, continuous sample for 6 times, and gain the average particle size.
1. Dissolve 10 g aripiprazole into aqueous ethanol solution containing hydrochloric acid (the molar ratio of hydrochloric acid to aripiprazole is 1.1, the concentration of the aqueous ethanol solution is 95%, the mass of the aqueous ethanol solution is 30 g), quickly add the 10% aqueous sodium hydroxide (the molar ratio of sodium hydroxide to hydrochloric acid is 1.01) all at once while stirring. Stir for 5 min then add 100 g water, stir again for 5 min, filter the precipitated crystal, wash twice with 20 g water each time and filter each time, dry the crystal at 80° C. for 4 hours, then obtain the aripiprazole microcrystal.
(§1) 2. Dissolve 10 g aripiprazole into aqueous ethanol solution with hydrochloric acid (the molar ratio of hydrochloric acid to aripiprazole is 1.02), quickly add the 10% aqueous sodium hydroxide (the molar ratio of sodium hydroxide to hydrochloric acid is 1.0) all at once while stirring (with stirring linear speed of 160 m/min). Stir for 5 min then add 100 g water, stir again for 5 min, filter the precipitated crystal, wash twice with 20 g water each time and filter each time, dry the crystals at 80° C. for 4 hours, then obtain the aripiprazole microcrystal.
as §1, with “3. Dissolve” for “2. Dissolve”, “acid (2.3 g 36% hydrochloric acid, 28.5 g anhydrous ethanol. The concentration” for “acid (the molar ratio”, “of the aqueous ethanol solution” for “of hydrochloric acid to aripiprazole”, “is 95%),” for “is 1.02), quickly”, “1.0)” for “1.0) all at once”, “the crystal” for “the crystals”

[2] = crushed by the universal grinder through mechanical pulverization; cited from earlier work
[3] = within 45 minutes; disclosed at the Japan and South Korea Analytical Chemistry Annual Meeting in 1998; cited from earlier work

SMILES | D[4,3] ([1]; starting aripiprazole microcrystals of Example 1) [mircon] | particle size D10 [1] [micron] | particle size D50 [1] [micron] | particle size D90 [1] [micron] | particle size D[4,3] [1] [micron] | average particle size [2] | dissolution rate [3]
O=C1CCc2ccc(OCCCCN3CCN(c4cccc(Cl)c4Cl)CC3)cc2N1 [aripiprazole microcrystals, aripiprazole] | 32.85 | – | – | – | – | – | –
O=C1CCc2ccc(OCCCCN3CCN(c4cccc(Cl)c4Cl)CC3)cc2N1 [Example 4, aripiprazole] | – | 1.18 | 8.78 | 24.78 | 10.99 | – | –
O=C1CCc2ccc(OCCCCN3CCN(c4cccc(Cl)c4Cl)CC3)cc2N1 [Contrastive Example 1, aripiprazole] | – | 9.31 | 29.85 | 60.39 | 32.85 | – | –
O=C1CCc2ccc(OCCCCN3CCN(c4cccc(Cl)c4Cl)CC3)cc2N1 [aripiprazole, 7-[4-[4-(2,3-dichlorophenyl)-1-piperazinyl]butoxy]-3,4-dihydro-2(1H)-quinolinone] | – | – | – | – | – | about 100 micron | –
O=C1CCc2ccc(OCCCCN3CCN(c4cccc(Cl)c4Cl)CC3)cc2N1 [Example 24, aripiprazole] | – | 1.00 | 3.93 | 8.7 | 4.73 | – | –
O=C1CCc2ccc(OCCCCN3CCN(c4cccc(Cl)c4Cl)CC3)cc2N1 [Example 2, aripiprazole] | – | 1.85 | 10.91 | 29.82 | 14.17 | – | –
O=C1CCc2ccc(OCCCCN3CCN(c4cccc(Cl)c4Cl)CC3)cc2N1 [Example 23, aripiprazole] | – | 1.52 | 9.67 | 32.17 | 13.42 | – | –
O=C1CCc2ccc(OCCCCN3CCN(c4cccc(Cl)c4Cl)CC3)cc2N1 [aripiprazole type I crystal, aripiprazole] | – | – | – | – | – | – | less than 70%
O=C1CCc2ccc(OCCCCN3CCN(c4cccc(Cl)c4Cl)CC3)cc2N1 [Example 3, aripiprazole] | – | 1.43 | 11.64 | 34.65 | 15.64 | – | –
O=C1CCc2ccc(OCCCCN3CCN(c4cccc(Cl)c4Cl)CC3)cc2N1 [Example 5, aripiprazole] | – | 0.74 | 4.75 | 16.34 | 6.79 | – | –
